According to patent US9908875B2, “Apoptosis signal-regulating kinase inhibitors” (Gilead Sciences, Inc., priority 2013, dated 2018):

Biological target: recombinant human ASK1 kinase (Homo sapiens (Human), UniProt Q99683)
Assay: TR-FRET ASK1 (Apoptosis Signal-Regulating Kinase 1) kinase assay
Assay type: biochemical
Conditions: 4 nM ASK1, 1 μM STK3 peptide substrate, 100 μM ATP, HTRF detection; average of quadruplicate determination; read-out: IC50 (nM), activities of the compounds of Formula (I) to ASK1
Excerpt: I. TR-FRET ASK1 (Apoptosis Signal-Regulating Kinase 1) Kinase Assay
To evaluate the inhibitory activity of compounds of the invention against ASK1 (Apoptosis Signal-regulating Kinase 1) kinase, its activity was examined using a TR-FRET ASK1 kinase assay which determined the amount of phosphate transferred to a peptide substrate from ATP.
Dephosphorylated recombinant human ASK1 kinase was from Gilead Sciences. Small molecule kinase inhibitor staurosporine (Catalogue #S6942) and dithiothreitol (DTT, catalogue #43815-5G) were obtained from Sigma Chemicals (St. Louis, Mo.). ATP (catalogue #7724) was from Affymetrix (Santa Clara, Calif.) and test compounds were from Gilead Sciences. HTRF KinEASE™-STK S3 kit was obtained from Cisbio (Bedford, Mass.). All other reagents were of the highest grade commercially available.
The assay measures the phosphorylation level of a biotinylated peptide substrate by the ASK1 kinase using HTRF detection. This is a competitive, time-resolved fluorescence resonance energy transfer (TR-FRET) immunoassay, based on HTRF® KinEASE™-STK manual from Cisbio. Test compound, 1 μM STK3 peptide substrate, 4 nM of ASK1 kinase were incubated with 10 mM MOP buffer, pH. 7.0 containing 10 mM Mg-acetate, 0.025% NP-40, 1 mM DTT, 0.05% BSA and 1.5% glycerol for 30 minutes then 100 μM ATP was added to start the kinase reaction and incubated for 3 hr. Peptide antibody labeled with 1× Eu^3+ Cryptate buffer containing 10 mM EDTA and 125 nM Streptavidin XL665 were added to stop the reaction and phosphorylated peptide substrate was detected using Envision 2103 Multilabeled reader from PerkinElmer. The fluorescence was measured at 615 nm (Cryptate) and 665 nm (XL665) and a ratio of 665 nm/615 nm was calculated for each well. The resulting TR-FRET level (a ratio of 665 nm/615 nm) was proportional to the phosphorylation level. Under these assay conditions, the degree of phosphorylation of peptide substrate was linear with time and concentration for the enzyme. The assay system yielded consistent results with regard to Km and specific activities for the enzyme. For inhibition experiments (IC50 values), activities were performed with constant concentrations of ATP, peptide and several fixed concentrations of inhibitors. Staurosporine, the nonselective kinase inhibitor, was used as the positive control. All enzyme activity data are reported as an average of quadruplicate determination.
The IC50 values were calculated following equation: y=Range/{1+(x/IC50)^s}+Background where x and y represent the concentration of inhibitors and enzyme activity, respectively. Enzyme activity is expressed as the amount of Phosphate incorporated into substrate peptide from ATP. Range is the maximum y range (no inhibitor, DMSO control) and s is a slope factor.

Sequence of recombinant human ASK1 kinase (Q99683 whole entry): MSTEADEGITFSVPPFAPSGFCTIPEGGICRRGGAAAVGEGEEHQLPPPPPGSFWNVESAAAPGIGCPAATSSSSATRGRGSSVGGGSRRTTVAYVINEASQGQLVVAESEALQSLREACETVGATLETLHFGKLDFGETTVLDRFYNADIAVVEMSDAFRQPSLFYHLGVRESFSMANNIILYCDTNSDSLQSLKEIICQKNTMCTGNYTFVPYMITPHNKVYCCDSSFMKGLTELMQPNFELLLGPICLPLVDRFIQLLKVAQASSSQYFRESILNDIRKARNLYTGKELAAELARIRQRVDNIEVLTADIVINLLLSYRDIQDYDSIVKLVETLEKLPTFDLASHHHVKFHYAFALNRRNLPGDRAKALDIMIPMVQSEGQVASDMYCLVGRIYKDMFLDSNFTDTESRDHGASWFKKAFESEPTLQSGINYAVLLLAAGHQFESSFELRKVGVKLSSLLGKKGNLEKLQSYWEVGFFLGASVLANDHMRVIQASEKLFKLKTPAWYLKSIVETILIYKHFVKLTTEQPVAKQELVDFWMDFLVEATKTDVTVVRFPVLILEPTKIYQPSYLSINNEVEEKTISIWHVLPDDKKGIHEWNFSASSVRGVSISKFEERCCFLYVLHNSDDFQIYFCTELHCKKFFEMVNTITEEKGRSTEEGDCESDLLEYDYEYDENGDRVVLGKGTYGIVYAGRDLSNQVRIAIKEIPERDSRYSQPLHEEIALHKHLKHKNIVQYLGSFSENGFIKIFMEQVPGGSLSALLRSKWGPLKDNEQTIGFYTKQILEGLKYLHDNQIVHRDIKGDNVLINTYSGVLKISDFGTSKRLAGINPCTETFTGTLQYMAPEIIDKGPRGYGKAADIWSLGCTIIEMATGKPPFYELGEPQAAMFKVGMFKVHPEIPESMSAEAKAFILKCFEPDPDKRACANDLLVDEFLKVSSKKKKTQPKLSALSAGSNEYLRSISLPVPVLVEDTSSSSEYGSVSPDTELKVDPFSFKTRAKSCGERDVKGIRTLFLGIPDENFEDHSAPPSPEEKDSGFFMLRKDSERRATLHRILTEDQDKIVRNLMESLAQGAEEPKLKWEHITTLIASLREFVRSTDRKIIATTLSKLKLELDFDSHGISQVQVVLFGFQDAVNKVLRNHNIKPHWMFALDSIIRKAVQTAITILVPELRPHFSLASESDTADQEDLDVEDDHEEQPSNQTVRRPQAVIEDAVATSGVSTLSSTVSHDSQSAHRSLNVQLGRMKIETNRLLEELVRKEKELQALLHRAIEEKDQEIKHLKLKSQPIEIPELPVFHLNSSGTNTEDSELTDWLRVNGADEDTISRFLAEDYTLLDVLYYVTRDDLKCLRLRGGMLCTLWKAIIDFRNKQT

IC50 [nM]	SMILES
2.7	O=C(Nc1csc(-c2nncn2C2CC2)n1)c1cc(-n2cnc(C3CC3)c2)c(N2CCN3CCCC3C2)cn1 (stereo not shown) [Compound 15, 5-(3,4,6,7,8,8a-hexahydro-1H-pyrrolo[1,2-a]pyrazin-2-yl)-4-(4-cyclopropylimidazol-1-yl)-N-[2-(4-cyclopropyl-1,2,4-triazol-3-yl)-1,3-thiazol-4-yl]pyridine-2-carboxamide]
1.4	C[C@H](n1cnnc1-c1nc(NC(=O)c2cc(-n3cnc(C4CC4)c3)c(N3CC(C)(C#N)C3)cn2)cs1)C(F)(F)F [Compound 24, (S)-5-(3-cyano-3-methylazetidin-1-yl)-4-(4-cyclopropyl-1H-imidazol-1-yl)-N-(2-(4-(1,1,1-trifluoropropan-2-yl)-4H-1,2,4-triazol-3-yl)thiazol-4-yl)picolinamide]
1.9	COC1CCN(c2cnc(C(=O)Nc3csc(-c4nncn4[C@@H](C)C(F)(F)F)n3)cc2-n2cnc(C3CC3)c2)C1 (stereo partly drawn) [Compound 28, 4-(4-cyclopropyl-1H-imidazol-1-yl)-5-(3-methoxypyrrolidin-1-yl)-N-(2-(4-((S)-1,1,1-trifluoropropan-2-yl)-4H-1,2,4-triazol-3-yl)thiazol-4-yl)picolinamide]
1.2	C[C@H](n1cnnc1-c1nc(NC(=O)c2cc(-n3cnc(C4CC4)c3)c(N3CCN(CC(F)(F)F)CC3)cn2)cs1)C(F)(F)F [Compound 33, (S)-4-(4-cyclopropyl-1H-imidazol-1-yl)-5-(4-(2,2,2-trifluoroethyl)piperazin-1-yl)-N-(2-(4-(1,1,1-trifluoropropan-2-yl)-4H-1,2,4-triazol-3-yl)thiazol-4-yl)picolinamide]
